From patent US12433935B2, “Producing method of mesenchymal stem cell for prevention or treatment of brain neuronal disease including ghrelin treatment and use thereof” (Samsung Life Public Welfare Foundation, priority 2020, dated 2025)
No end group written: not given here.

Columns and labels:
AgRP gene = assay: AgRP expression in mesenchymal stem cells (WJ-MSC) treated with ghrelin, real-time PCR; assay type: cell-based, human
Experimental: An experiment was conducted to identify the effect on the expression of AgRP (Agouti related peptide) known as a therapeutic agent for brain neuronal disease such as Alzheimer's disease in mesenchymal stem cells when the mesenchymal stem cells were directly treated with ghrelin. WJ-MSCs were thawed in a 175T flask and stabilized for 3 days, and then cultured for 2 days in MEM alpha medium (Gibco, 12571063) to which 10% FBS (Biowest, S1480) and 5 μg/ml gentamicin were added. Thereafter, the WJ-MSCs were seeded, at 0.8×10^6, on a 6-well plate under 10% FBS conditions and incubated for 1 day. After the incubation, the WJ-MSCs were treated with human recombinant ghrelin (Phoenix Pharmaneuticals, 031-30) at concentrations of 0, 10 pM, 1 nM, and 100 nM, respectively, under FBS-free conditions. Cells were collected after 6 and 12 hours, respectively. The collected WJ-MSC was treated with Trizol, and mRNA was extracted therefrom. Then, real-time PCR analysis thereof was performed using human AgRP Primer. The results of treatment of the cells with human recombinant ghrelin at various concentrations for 6 hours are shown in FIG. 2A. The results of treatment of the cells with human recombinant ghrelin at various concentrations for 12 hours are shown in FIG. 2B.

mouse AgRP gene = assay: AgRP expression in mHYPOE-N46 mouse hypothalamus cell line treated with ghrelin, real-time PCR; assay type: cell-based; conditions: mHYPOE-N46 cells, 0, 10 pM, 1 nM, 100 nM, 6 or 12 hours, primers mAgRP1 and mAgRP2 (FIG. 3A-3D)
Experimental: An experiment was conducted to identify the change in AgRP expression level when the mouse hypothalamus cell line was directly treated with the mouse/rat recombinant ghrelin. Specifically, mHYPOE-N46 mouse hypothalamus cell line was thawed in a 175T flask and stabilized for 3 days, and then was incubated for two days in DMEM high glucose medium (Gibco, 11965-092) supplemented with 10% FBS (Biowest, 51480) and penicillin-streptomycin (Gibco, 15140122). Under 10% FBS conditions, the cells are seeded, at 0.8×10^6, in a 6 well plate and incubated for 1 day. After the incubation, the cells were treated with mouse/rat recombinant ghrelin (Phoenix Pharmaneuticals, 031-31) at concentrations of 0, 10 pM, 1 nM, and 100 nM, respectively, in FBS-free conditions. Cells were collected after 6 and 12 hours, respectively. The collected cells were treated with Trizol. mRNA was extracted therefrom. Then, real-time PCR analysis thereof was performed using two mouse AgRP primer pairs. […] After direct treatment of the cells with ghrelin for 6 or 12 hours, the expression of mAgRP was analyzed. In addition, the results of mouse AgRP expression analysis according to ghrelin treatment time using primer mAgRP2 are shown in FIG. 3C and FIG. 3D.

Substance	expression of AgRP gene (AgRP gene; WJ-MSC, 0, 10 pM, 1 nM, 100 nM, FBS-free, 6 hours and 12 hours (FIG. 2A, 2B))	expression of AgRP (AgRP gene; WJ-MSC, 100 nM concentration, 6 and 12 hours)	expression of mouse AgRP gene (mouse AgRP gene)
human recombinant ghrelin: human recombinant ghrelin (Phoenix Pharmaneuticals, 031-30); hormone that increases appetite (GSSFLSPEHQRVQQRKESKKPPAKLQPR; ends and bridges not checked; UniProt Q9UBU3 24-51, looked up)	increased based on the treatment concentration	significantly increased	–
mouse ghrelin: mouse/rat recombinant ghrelin (Phoenix Pharmaneuticals, 031-31) (GSSFLSPEHQKAQQRKESKKPPAKLQPR; ends and bridges not checked; UniProt Q9EQX0 24-51, looked up)	–	–	increased according to the concentration of ghrelin
